Patent US20070129344A1, “Bicyclic 6-alkylidene-penem beta-lactamase inhibitors and beta-lactam antibiotic combination: a broad spectrum antibiotic” (priority 2005, published 2007)
Where a name gives a salt, the structure may show the parent alone. Read-outs that look alike come from different tables or passages of the source.

Key:
[1] = tested on: P. aeruginosa GC 4161 Stably derepressed AmpC; experiment: MIC microbroth dilution; β-lactamase class C; format: cell-based
Procedure, shortened: (§1)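 Following NCCLS standard M7-A5, antibiotics were tested by microbroth dilution in MHBII; plates sat 18-22 hours at 35° C. under ambient atmosphere.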

[2] = tested on: C. freundii GC 4187 Stably derepressed AmpC; experiment: MIC microbroth dilution; β-lactamase class C; format: cell-based
Procedure, shortened: as §1

[3] = tested on: S. marcescens GC 4132 Stably derepressed AmpC; experiment: MIC microbroth dilution; β-lactamase class C; format: cell-based
Procedure, shortened: as §1

[4] = tested on: C. freundii PT 1499 Stably derepressed AmpC; experiment: MIC microbroth dilution; β-lactamase class C; format: cell-based
Procedure, shortened: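 NCCLS microbroth dilution; MHBII; 35° C., ambient air, 18-22 hours.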

[5] = tested on: A. baumannii PT 8321 PTZ-R; experiment: MIC microbroth dilution; β-lactamase class not determined; format: cell-based
Protocol: (§2) The in vitro activities of the antibiotics were determined by the microbroth dilution method as recommended by the National Committee for Clinical Laboratory Standards (NCCLS). (NCCLS. 2000. Methods for Dilution Antimicrobial Susceptibility Tests for Bacteria That Grow Aerobically; Approved Standards: M7-A5, vol. 19. National Committee for Clinical Laboratory Standards, Villanova, Pa.). Mueller-Hinton II broth (MHBII)(BBL Cockeysville, Md.), was used for the testing procedure. […]. The plates were incubated for 18-22 hours at 35° C. in ambient air.

[6] = tested on: A. baumannii PT 9158 PTZ-R; experiment: as above; format: cell-based
Protocol: as §2

[7] = tested on: K. pneumoniae GC 7636 TEM-1 KPC-2 SHV-12; experiment: MIC microbroth dilution; β-lactamase class A, A (Cb'ase), A (ESBL); format: cell-based
Protocol: as §2

[8] = tested on: A. baumannii GC 7685 TEM-1; experiment: MIC microbroth dilution; β-lactamase class A; format: cell-based
Protocol: as §2

[9] = tested on: E. coli ATCC 35218 TEM-1; experiment: MIC microbroth dilution; β-lactamase class A; format: cell-based
Protocol: as §2

[10] = tested on: P. aeruginosa PT 9025 PTZ-R; experiment: MIC microbroth dilution; format: cell-based
Protocol: as §2

[11] = tested on: K. pneumoniae GC 7645 TEM-30 TEM-1 KPC-2 SHV-12; experiment: MIC microbroth dilution; β-lactamase class A, A (Cb'ase), A (ESBL), A(IRT); format: cell-based
Protocol: as §2

[12] = tested on: E. coli GC 2805 (CcrA); experiment: MIC microbroth dilution; β-lactamase class B; format: cell-based
Protocol: as §2

[13] = tested on: K. pneumoniae GC 2825 Act 1 + 3 additional; experiment: MIC microbroth dilution; β-lactamase class A, A (ESBL), C; format: cell-based
Protocol: as §2

[14] = tested on: E. coli GC 2149 (ACT-1; TEM-1 + pl 5.6); experiment: as above; format: cell-based
Protocol: as §2

[15] = tested on: E. coli GC 6197 (TEM-1 + SHV-7 + CMY-2); experiment: as above; format: cell-based
Protocol: as §2

[16] = tested on: K. pneumoniae GC 2826 Act 1 + 3 additional; experiment: as above; format: cell-based
Protocol: as §2

[17] = tested on: K. oxytoca GC 7627 TEM-1 K1 KPC-2; experiment: MIC microbroth dilution; β-lactamase class A, A (Cb'ase); format: cell-based
Protocol: as §2

[18] = tested on: E. coli GC 2906 (Imi-1); experiment: MIC microbroth dilution; β-lactamase class A (Cb'ase); format: cell-based
Protocol: as §2

[19] = tested on: K. pn GC 1516 (TEM-26); experiment: MIC microbroth dilution; β-lactamase class A (ESBL); format: cell-based, K. pneumoniae
Protocol: as §2

[20] = tested on: K. pn GC 6639 (SHV-13); experiment: as above; format: cell-based, K. pneumoniae
Protocol: as §2

[21] = tested on: K. pn GC 1510 (TEM-10); experiment: as above; format: cell-based, K. pneumoniae
Protocol: as §2

[22] = tested on: K. pn GC 1832 (SHV-4); experiment: as above; format: cell-based, K. pneumoniae
Protocol: as §2

[23] = tested on: K. pn GC 1830 (SHV-2); experiment: as above; format: cell-based, K. pneumoniae
Protocol: as §2

[24] = tested on: E. coli GC 1499 (TEM-4 + TEM-1); experiment: MIC microbroth dilution; β-lactamase class A, A (ESBL); format: cell-based
Protocol: as §2

[25] = tested on: E. coli GC 5901 (TEM-1 and SHV-8); experiment: as above; format: cell-based
Protocol: as §2

[26] = tested on: E. coli GC 1695 (TEM-1 + TEM-10); experiment: as above; format: cell-based
Protocol: as §2

[27] = tested on: E. coli GC 2146 (TEM-1; SHV-7); experiment: as above; format: cell-based
Protocol: as §2

[28] = tested on: E. coli GC 2015 (TEM-10 + SHV-1); experiment: as above; format: cell-based
Protocol: as §2

[29] = tested on: E. coli GC 6260 (TEM-1 + SHV-5); experiment: as above; format: cell-based
Protocol: as §2

[30] = tested on: E. coli GC 1807 OXA-7; experiment: MIC microbroth dilution; β-lactamase class D; format: cell-based
Protocol: as §2

[31] = tested on: E. coli GC 1480 OXA-1; experiment: MIC microbroth dilution; β-lactamase class D; format: cell-based
Protocol: as §2

[32] = Citrobacter freundii, Cefepime alone, control of Compound 1 test
[33] = Cefepime alone, control of Compound 2 test
[34] = Klebsiella pneumoniae, Cefepime alone, control of Compound 1 test, read-out: MIC
[35] = Escherichia coli, Cefepime alone, control of Compound 1 test, read-out: MIC
[36] = Klebsiella pneumoniae, Cefepime alone, control of Compound 2 test, read-out: MIC
[37] = Klebsiella pneumoniae, Cefepime + 4 ug/ml Compound 2, read-out: MIC
[38] = Escherichia coli, Cefepime + 4 ug/ml Compound 2, read-out: MIC

Measured: MIC

CO/N=C(\C(=O)N[C@@H]1C(=O)N2C(C(=O)[O-])=C(C[N+]3(C)CCCC3)CS[C@H]12)c1csc(N)n1 [Cefepime, reference compound]
>16 µg/mL: [1]; P. aeruginosa GC 4161, Cefepime alone, control of Compound 2 test | [5]; [33] | [6]; [33] | [7]; K. pneumoniae GC 7636, Cefepime alone, control of Compound 2 test | [8]; A. baumannii GC 7685, Cefepime alone, control of Compound 2 test | [10]; P. aeruginosa PT 9025, Cefepime alone, control of Compound 2 test | [11]; K. pneumoniae GC 7645, Cefepime alone, control of Compound 2 test | [12]; E. coli GC 2805, Cefepime alone, control of Compound 2 test | [15]; [33] | [17]; K. oxytoca GC 7627, Cefepime alone, control of Compound 2 test | [19]; [33] | [20]; [33] | [24]; [33] | [25]; [33] | [26]; [33] | [27]; [33] | [28]; [33] | [29]; [33]
1 µg/mL: [23]; [34]
0.12 µg/mL: [30]; Escherichia coli, GC1807OXA7, E. coli GC 1807, Cefepime alone, control of Compound 1 test, read-out: MIC
2 µg/mL: [2]; [32] | [4]; Citrobacter freundii, Cefepime alone, control of Compound 2 test | [13]; [33] | [13]; [34] | [21]; [36] | [22]; [33] | [22]; [34] | [31]; Escherichia coli, GC1480OXA1, E. coli GC 1480, Cefepime alone, control of Compound 2 test, read-out: MIC
0.03 µg/mL: [9]; E. coli ATCC 35218, Cefepime alone, control of Compound 2 test | [9]; Escherichia coli, ATCC35218
> 16 µg/mL: [1]; Pseudomonas aeruginosa | [5]; Acinetobacter baumannii, PT8321PTZR, Cefepime alone, control of Compound 1 test, read-out: MIC | [6]; Acinetobacter baumannii, PT9158PTZR, Cefepime alone, control of Compound 1 test, read-out: MIC | [7]; Klebsiella pneumoniae | [8]; Acinetobacter baumannii, GC7685TEM1 | [10]; Pseudomonas aeruginosa, PT9025PTZR | [11]; Klebsiella pneumoniae | [12]; Escherichia coli | [15]; [35] | [17]; Klebsiella oxytoca | [19]; [34] | [20]; [34] | [24]; [35] | [25]; [35] | [26]; [35] | [27]; [35] | [28]; [35] | [29]; [35]
0.25 µg/mL: [30]; Escherichia coli, GC1807OXA7, E. coli GC 1807, Cefepime alone, control of Compound 2 test, read-out: MIC
8 µg/mL: [14]; [35] | [16]; [33] | [16]; [34]
4 µg/mL: [4]; [32] | [31]; Escherichia coli, GC1480OXA1, E. coli GC 1480, Cefepime alone, control of Compound 1 test, read-out: MIC
16 µg/mL: [14]; Escherichia coli, Cefepime alone, control of Compound 2 test, read-out: MIC
0.50 µg/mL: [3]; [33]
0.5 µg/mL: [18]; Escherichia coli, Cefepime alone, control of Compound 1 test | [21]; [34] | [23]; [36]

O=C([O-])C1=CS[C@@H]2/C(=C\c3cn4c(n3)CCC4)C(=O)N12.[Na+] [Compound 1, (5R), (6Z)-6-(6,7-Dihydro-5H-pyrrolo[1,2-a]imidazol-2-ylmethylene)-7-oxo-4-thia-1-aza-bicyclo[3.2.0]hept-2-ene-2-carboxylic Acid, Sodium Salt]
0.50 µg/mL: [14]; Cefepime + 4 ug/ml Compound 1 | [24]; Cefepime + 4 ug/ml Compound 1
<0.015 µg/mL: [30]; E. coli GC 1807, Cefepime + 4 ug/ml Compound 1
0.12 µg/mL: [2]; Cefepime + 4 ug/ml Compound 1 | [3]; Cefepime + 4 ug/ml Compound 1 | [13]; Cefepime + 4 ug/ml Compound 1 | [27]; Cefepime + 4 ug/ml Compound 1
>16 µg/mL: [5]; Cefepime + 4 ug/ml Compound 1 | [11]; K. pneumoniae GC 7645, Cefepime + 4 ug/ml Compound 1 | [12]; E. coli GC 2805, Cefepime + 4 ug/ml Compound 1
0.03 µg/mL: [4]; Cefepime + 4 ug/ml Compound 1 | [9]; E. coli ATCC 35218, Cefepime + 4 ug/ml Compound 1 | [23]; Cefepime + 4 ug/ml Compound 1 | [26]; Cefepime + 4 ug/ml Compound 1 | [29]; Cefepime + 4 ug/ml Compound 1
1 µg/mL: [16]; Cefepime + 4 ug/ml Compound 1
0.06 µg/mL: [18]; Cefepime + 4 ug/ml Compound 1 | [21]; Cefepime + 4 ug/ml Compound 1 | [22]; Cefepime + 4 ug/ml Compound 1 | [31]; E. coli GC 1480, Cefepime + 4 ug/ml Compound 1
4 µg/mL: [15]; Cefepime + 4 ug/ml Compound 1 | [25]; Cefepime + 4 ug/ml Compound 1
2 µg/mL: [17]; K. oxytoca GC 7627, Cefepime + 4 ug/ml Compound 1
16 µg/mL: [1]; P. aeruginosa GC 4161, Cefepime + 4 ug/ml Compound 1 | [6]; Cefepime + 4 ug/ml Compound 1 | [7]; K. pneumoniae GC 7636, Cefepime + 4 ug/ml Compound 1 | [8]; A. baumannii GC 7685, Cefepime + 4 ug/ml Compound 1 | [10]; P. aeruginosa PT 9025, Cefepime + 4 ug/ml Compound 1
0.25 µg/mL: [19]; Cefepime + 4 ug/ml Compound 1 | [20]; Cefepime + 4 ug/ml Compound 1 | [28]; Cefepime + 4 ug/ml Compound 1

O=C(O)C1=CS[C@@H]2/C(=C\c3cn4c(n3)COCC4)C(=O)N12 [Compound 2, (5R), (6Z)-6-(5,6-Dihydro-8H-imidazo[2.1-c][1,4]oxazin-2-ylmethylene)-7-oxo-4-thia-1-azabicyclo[3.2.0]hept-2-ene-2-carboxylic Acid, Sodium Salt]
2 µg/mL: [15]; [38] | [25]; [38]
0.5 µg/mL: [14]; [38]
0.25 µg/mL: [19]; [37]
0.06 µg/mL: [22]; [37] | [23]; [37] | [31]; Escherichia coli, GC1480OXA1, E. coli GC 1480, Cefepime + 4 ug/ml Compound 2, read-out: MIC
1 µg/mL: [16]; [37] | [24]; [38]
0.12 µg/mL: [13]; [37] | [20]; [37] | [27]; [38] | [28]; [38]
> 16 µg/mL: [5]; Acinetobacter baumannii, PT8321PTZR, Cefepime + 4 ug/ml Compound 2, read-out: MIC
0.03 µg/mL: [21]; [37] | [26]; [38] | [29]; [38] | [30]; Escherichia coli, GC1807OXA7, E. coli GC 1807, Cefepime + 4 ug/ml Compound 2, read-out: MIC
16 µg/mL: [6]; Acinetobacter baumannii, PT9158PTZR, Cefepime + 4 ug/ml Compound 2, read-out: MIC
